16 compounds from patent US20250114345A1, “COMPOUNDS AND COMPOSITIONS AS CBP/P300 DEGRADERS AND USES THEREOF” (Oncopia Therapeutics, Inc. d/b/a/ SK Life Science Labs, priority 2023, published 2025) can be followed below.

The target in experiment [1] is T1, p300 (Homo sapiens, UniProt Q09472).
T1 construct: host or cells: A549 P300 HiBit cells
As to the kind of experiment: P300 degradation, HiBit technology in A549 P300 HiBit cells (2 h). It is filed as cell-based. The settings on record: 2 hrs post treatment; for Dmax: A549, A549 P300 HiBit cells; for DC50: A549 P300 HiBit cells. An outline of the steps: (§1)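 Cells: A549 HiBiT-tagged lines, 0.2×10^4/well, F-12K + 10% HI-FBS, equilibrated overnight. Tx: serial dilution of cpd (10 mM DMSO stock). Readout: HiBiT lytic reagent, 10 min RT shaking, luminescence → potency, Dmax.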
A general note: The HiBiT peptide binds its large partner to form an active luciferase.

The target in experiment [2] is T2, CBP (Homo sapiens, UniProt Q92793).
T2 construct: host or cells: A549 CBP HiBit cells
T2 sequence (Q92793 whole entry): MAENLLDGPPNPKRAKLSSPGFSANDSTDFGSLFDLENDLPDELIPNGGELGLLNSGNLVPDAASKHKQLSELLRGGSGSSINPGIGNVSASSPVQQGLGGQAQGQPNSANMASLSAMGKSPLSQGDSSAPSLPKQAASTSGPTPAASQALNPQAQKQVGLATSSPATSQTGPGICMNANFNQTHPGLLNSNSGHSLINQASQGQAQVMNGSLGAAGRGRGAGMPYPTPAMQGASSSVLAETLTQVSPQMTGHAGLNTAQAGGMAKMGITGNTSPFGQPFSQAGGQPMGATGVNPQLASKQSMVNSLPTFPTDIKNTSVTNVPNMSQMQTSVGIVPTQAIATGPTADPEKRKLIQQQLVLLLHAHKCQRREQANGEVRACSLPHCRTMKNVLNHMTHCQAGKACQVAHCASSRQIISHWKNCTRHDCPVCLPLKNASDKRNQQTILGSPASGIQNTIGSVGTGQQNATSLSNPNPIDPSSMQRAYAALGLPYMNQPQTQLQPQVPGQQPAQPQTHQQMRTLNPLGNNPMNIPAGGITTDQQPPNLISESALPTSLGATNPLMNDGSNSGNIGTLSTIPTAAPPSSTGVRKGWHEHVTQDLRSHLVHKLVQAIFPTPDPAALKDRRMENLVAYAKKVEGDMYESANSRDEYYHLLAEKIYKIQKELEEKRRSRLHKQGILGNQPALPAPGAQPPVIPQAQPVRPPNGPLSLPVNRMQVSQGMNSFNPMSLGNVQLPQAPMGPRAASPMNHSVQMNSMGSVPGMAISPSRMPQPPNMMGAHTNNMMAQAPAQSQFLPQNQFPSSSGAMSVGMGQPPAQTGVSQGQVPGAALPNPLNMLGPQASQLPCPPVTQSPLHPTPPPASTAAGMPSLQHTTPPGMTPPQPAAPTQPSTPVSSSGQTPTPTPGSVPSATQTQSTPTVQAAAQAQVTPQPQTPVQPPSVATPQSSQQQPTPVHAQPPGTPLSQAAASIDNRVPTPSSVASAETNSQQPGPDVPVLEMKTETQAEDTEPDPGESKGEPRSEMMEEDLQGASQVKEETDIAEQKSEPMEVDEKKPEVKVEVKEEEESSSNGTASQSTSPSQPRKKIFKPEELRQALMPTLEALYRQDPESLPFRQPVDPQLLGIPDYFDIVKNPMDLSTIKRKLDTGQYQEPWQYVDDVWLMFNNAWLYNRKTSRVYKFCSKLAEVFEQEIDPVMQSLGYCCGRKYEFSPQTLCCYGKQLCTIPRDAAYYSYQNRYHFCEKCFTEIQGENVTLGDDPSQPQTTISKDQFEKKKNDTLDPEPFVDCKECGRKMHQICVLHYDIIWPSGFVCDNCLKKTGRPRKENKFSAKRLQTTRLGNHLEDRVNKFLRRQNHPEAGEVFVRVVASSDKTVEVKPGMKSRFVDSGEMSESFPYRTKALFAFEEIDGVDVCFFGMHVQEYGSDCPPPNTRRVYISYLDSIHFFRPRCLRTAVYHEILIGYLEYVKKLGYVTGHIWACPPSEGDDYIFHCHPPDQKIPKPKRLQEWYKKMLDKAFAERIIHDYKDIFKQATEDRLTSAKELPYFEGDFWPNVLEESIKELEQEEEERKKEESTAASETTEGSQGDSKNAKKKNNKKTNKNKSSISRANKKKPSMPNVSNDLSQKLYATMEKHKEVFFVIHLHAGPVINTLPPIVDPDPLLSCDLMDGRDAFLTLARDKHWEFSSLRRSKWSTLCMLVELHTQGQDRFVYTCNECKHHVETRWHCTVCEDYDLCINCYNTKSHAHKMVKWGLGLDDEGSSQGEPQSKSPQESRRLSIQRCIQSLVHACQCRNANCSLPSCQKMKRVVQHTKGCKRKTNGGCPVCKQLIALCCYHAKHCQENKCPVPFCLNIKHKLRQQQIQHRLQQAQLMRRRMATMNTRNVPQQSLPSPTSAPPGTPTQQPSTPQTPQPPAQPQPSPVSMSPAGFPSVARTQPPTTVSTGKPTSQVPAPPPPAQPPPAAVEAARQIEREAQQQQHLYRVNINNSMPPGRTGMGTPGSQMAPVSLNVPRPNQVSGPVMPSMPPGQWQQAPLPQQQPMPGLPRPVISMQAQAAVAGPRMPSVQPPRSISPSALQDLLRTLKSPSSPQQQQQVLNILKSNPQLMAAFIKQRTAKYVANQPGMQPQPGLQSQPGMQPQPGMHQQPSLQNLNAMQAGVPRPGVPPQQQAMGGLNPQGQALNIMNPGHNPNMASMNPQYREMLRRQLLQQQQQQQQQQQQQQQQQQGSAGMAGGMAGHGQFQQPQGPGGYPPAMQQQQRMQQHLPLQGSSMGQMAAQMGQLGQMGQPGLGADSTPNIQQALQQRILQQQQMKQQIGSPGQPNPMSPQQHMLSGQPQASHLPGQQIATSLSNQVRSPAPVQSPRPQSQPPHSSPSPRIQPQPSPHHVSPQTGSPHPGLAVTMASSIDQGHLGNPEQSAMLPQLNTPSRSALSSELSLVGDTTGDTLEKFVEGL
Description: CBP degradation, HiBit technology in A549 CBP HiBit cells (24 h). It is filed as cell-based. The settings on record: 24 hrs post treatment. An outline of the steps: as §1

Structures are written as SMILES. Some results are limits rather than exact numbers.

T1 sequence (Q09472 whole entry): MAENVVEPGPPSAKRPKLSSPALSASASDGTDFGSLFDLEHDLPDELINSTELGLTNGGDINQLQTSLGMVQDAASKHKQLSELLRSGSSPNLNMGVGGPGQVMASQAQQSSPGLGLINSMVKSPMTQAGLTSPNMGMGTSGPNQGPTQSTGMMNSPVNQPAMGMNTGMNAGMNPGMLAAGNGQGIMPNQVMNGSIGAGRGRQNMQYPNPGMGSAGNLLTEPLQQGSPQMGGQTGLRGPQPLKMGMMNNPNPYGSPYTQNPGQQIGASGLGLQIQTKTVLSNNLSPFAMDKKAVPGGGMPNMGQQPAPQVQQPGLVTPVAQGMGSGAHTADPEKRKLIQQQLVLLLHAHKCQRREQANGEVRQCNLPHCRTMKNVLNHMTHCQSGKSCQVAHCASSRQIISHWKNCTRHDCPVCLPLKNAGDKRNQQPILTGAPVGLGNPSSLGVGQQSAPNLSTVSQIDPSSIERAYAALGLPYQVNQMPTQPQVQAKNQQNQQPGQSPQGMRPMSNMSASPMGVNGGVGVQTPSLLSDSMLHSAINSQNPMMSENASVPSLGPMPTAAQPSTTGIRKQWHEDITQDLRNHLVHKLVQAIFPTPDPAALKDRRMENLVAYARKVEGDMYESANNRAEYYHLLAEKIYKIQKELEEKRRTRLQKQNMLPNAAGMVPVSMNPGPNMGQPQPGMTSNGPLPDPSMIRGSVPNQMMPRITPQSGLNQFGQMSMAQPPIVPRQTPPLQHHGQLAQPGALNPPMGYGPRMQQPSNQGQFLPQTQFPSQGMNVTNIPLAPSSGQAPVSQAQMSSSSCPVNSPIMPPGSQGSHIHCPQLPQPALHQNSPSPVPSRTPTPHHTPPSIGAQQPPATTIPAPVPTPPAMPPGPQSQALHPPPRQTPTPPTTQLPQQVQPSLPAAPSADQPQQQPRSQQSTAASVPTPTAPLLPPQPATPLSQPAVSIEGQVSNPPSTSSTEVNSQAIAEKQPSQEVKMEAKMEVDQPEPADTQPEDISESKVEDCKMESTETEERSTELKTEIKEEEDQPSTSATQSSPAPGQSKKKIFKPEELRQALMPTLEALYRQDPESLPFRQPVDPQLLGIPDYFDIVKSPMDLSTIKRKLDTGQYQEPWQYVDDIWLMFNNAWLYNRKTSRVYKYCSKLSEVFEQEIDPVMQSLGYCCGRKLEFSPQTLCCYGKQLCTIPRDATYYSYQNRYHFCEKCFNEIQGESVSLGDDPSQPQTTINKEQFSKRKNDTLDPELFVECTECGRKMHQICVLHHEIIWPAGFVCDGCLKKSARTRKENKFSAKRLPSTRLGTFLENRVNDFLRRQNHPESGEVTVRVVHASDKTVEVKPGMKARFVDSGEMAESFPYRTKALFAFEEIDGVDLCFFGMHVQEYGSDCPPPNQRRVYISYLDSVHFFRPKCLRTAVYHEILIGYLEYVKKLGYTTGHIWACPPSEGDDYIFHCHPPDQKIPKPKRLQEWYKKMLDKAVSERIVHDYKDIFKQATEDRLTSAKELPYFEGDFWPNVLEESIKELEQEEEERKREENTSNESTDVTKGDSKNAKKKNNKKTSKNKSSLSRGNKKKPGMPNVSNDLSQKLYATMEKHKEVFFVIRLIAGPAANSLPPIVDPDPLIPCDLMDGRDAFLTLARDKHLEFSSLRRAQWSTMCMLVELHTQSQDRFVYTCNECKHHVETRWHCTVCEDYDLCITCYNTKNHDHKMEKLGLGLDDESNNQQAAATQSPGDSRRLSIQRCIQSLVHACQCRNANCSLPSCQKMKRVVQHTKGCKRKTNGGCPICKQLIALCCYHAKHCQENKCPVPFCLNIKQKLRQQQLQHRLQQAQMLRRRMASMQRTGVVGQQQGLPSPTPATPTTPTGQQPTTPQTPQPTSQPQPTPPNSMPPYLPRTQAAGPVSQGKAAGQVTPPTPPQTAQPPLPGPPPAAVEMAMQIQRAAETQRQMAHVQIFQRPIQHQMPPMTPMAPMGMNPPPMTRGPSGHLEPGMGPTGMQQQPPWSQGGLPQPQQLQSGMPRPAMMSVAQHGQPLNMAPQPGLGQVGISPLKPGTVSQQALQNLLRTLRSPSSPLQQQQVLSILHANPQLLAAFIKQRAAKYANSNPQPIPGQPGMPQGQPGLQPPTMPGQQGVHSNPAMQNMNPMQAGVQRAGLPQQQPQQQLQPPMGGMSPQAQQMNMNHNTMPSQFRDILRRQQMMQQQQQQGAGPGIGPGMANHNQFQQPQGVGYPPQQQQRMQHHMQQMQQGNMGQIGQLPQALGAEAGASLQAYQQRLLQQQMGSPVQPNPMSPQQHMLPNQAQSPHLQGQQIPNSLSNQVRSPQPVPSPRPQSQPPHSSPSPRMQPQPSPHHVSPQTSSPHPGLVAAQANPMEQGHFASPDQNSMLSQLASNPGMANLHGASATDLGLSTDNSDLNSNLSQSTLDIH

For orientation: Dmax means the largest share of the target that was removed. A word on the DC50: it is the concentration giving 50% degradation. A higher DC50 goes with a less potent degrader. For `Cc1cc(-c2cc3cccc(-c4cc(C(C)C)c5c(c4)n(C)c(=O)n5C)c3cn2)cnc1C(=O)NCC#Cc1cccc(NC23CC(C2)C(=O)NC3=O)c1` [Example A177, N-(3-(3-((2,4-dioxo-3-azabicyclo[3.1.1]heptan-1-yl)amino)phenyl)prop-2-yn-1-yl)-5-(8-(7-isopropyl-1,3-dimethyl-2-oxo-2,3-dihydro-1H-benzo[d]imidazol-5-yl)isoquinolin-3-yl)-3-methylpicolinamide], in experiment [1], the Dmax is greater than 80% and the DC50 is 10 to 99 nM. In experiment [2], this compound had a 50% degradation concentration (DC50) greater than 1000 nM and a Dmax of less than 20%.
In experiment [1], `Cn1c(=O)n(C)c2cc(N3CCOc4nc(-c5ccc(C(=O)NCC#Cc6ccc7occ(C89CC(C8)C(=O)NC9=O)c7c6)nc5)ncc43)ccc21` [Example A178, 5-(5-(1,3-dimethyl-2-oxo-2,3-dihydro-1H-benzo[d]imidazol-5-yl)-6,7-dihydro-5H-pyrimido[4,5-b][1,4]oxazin-2-yl)-N-(3-(3-(2,4-dioxo-3-azabicyclo [3.1.1]heptan-1-yl)benzofuran-5-yl)prop-2-yn-1-yl)picolinamide] returned a Dmax of 20 to 39% and a DC50 of 10 to 99 nM. Moreover, in experiment [2], the DC50 is greater than 1000 nM and the Dmax was less than 20%.
`Cc1cc(-c2cc3cccc(-c4ccc5c(c4)n(C)c(=O)n5C)c3cn2)cnc1C(=O)NCC#Cc1cc2c(C3CCC(=O)NC3=O)cccc2o1` (stereo not shown) [Example A180, 5-(8-(1,3-dimethyl-2-oxo-2,3-dihydro-1H-benzo[d]imidazol-5-yl)isoquinolin-3-yl)-N-(3-(4-(2,6-dioxo-piperidin-3-yl)benzofuran-2-yl)prop-2-yn-1-yl)-3-methylpicolinamide]: the Dmax in experiment [1] was greater than 80%; in experiment [2], less than 20%. In addition, the DC50 is 1 to 9.9 nM in experiment [1] and greater than 1000 nM in experiment [2].
The like results for `Cc1cc(-c2cc3cccc(-c4ccc5c(c4)n(C)c(=O)n5C)c3cn2)cnc1C(=O)NCC#Cc1cc2c([C@H]3CCC(=O)NC3=O)cccc2o1` [Example A181, (R)-5-(8-(1,3-dimethyl-2-oxo-2,3-dihydro-1H-benzo [d]imidazol-5-yl)isoquinolin-3-yl)-N-(3-(4-(2,6-dioxopiperidin-3-yl)benzofuran-2-yl)prop-2-yn-1-yl)-3-methylpicolinamide] were, in that order, greater than 80%, less than 20%, 1 to 9.9 nM and 100 to 999 nM.
In experiment [1], `Cc1cc(-c2cc3cccc(-c4ccc5c(c4)n(C)c(=O)n5C)c3cn2)cnc1C(=O)NCC#Cc1cc2c([C@@H]3CCC(=O)NC3=O)cccc2o1` [Example A182, (S)-5-(8-(1,3-dimethyl-2-oxo-2,3-dihydro-1H-benzo[d]imidazol-5-yl)isoquinolin-3-yl)-N-(3-(4-(2,6-dioxopiperidin-3-yl)benzofuran-2-yl)prop-2-yn-1-yl)-3-methylpicolinamide] registered a Dmax greater than 80% and a DC50 of 1 to 9.9 nM. In experiment [2], this compound returned a DC50 greater than 1000 nM and a Dmax of less than 20%.
Turning to `CC(C)c1cc(-c2cccc3cc(-c4ccc(C(=O)NCC#Cc5cc6c(F)ccc(C7CCC(=O)NC7=O)c6o5)nc4)ncc23)cc2c1n(C)c(=O)n2C` (stereo not shown) [Example A185, N-(3-(7-(2,6-dioxo-piperidin-3-yl)-4-fluorobenzofuran-2-yl)prop-2-yn-1-yl)-5-(8-(7-isopropyl-1,3-dimethyl-2-oxo-2,3-dihydro-1H-benzo [d]imidazol-5-yl)isoquinolin-3-yl)picolinamide], in experiment [1], the Dmax lay within 60 to 79% and the DC50 fell in the range of 10 to 99 nM. Also, in experiment [2], the DC50 was greater than 1000 nM and the Dmax was less than 20%.
For `Cc1cc(-c2cc3cccc(-c4cnc5c(c4)n(C)c(=O)n5C)c3cn2)cnc1C(=O)NCC#Cc1cc2c(C3CCC(=O)NC3=O)cccc2o1` (stereo not shown) [Example A189, 5-(8-(1,3-dimethyl-2-oxo-2,3-dihydro-1H-imidazo[4,5-b]pyridin-6-yl)isoquinolin-3-yl)-N-(3-(4-(2,6-dioxopiperidin-3-yl)benzofuran-2-yl)prop-2-yn-1-yl)-3-methylpicolinamide], in that order: greater than 80%, 1 to 9.9 nM, greater than 1000 nM and less than 20%.
As to `CC(C)c1cc(-c2cccc3cc(-c4ccc(C(=O)NCC#Cc5oc6c(C7CCC(=O)NC7=O)cccc6c5F)nc4)ncc23)cc2c1n(C)c(=O)n2C` (stereo not shown) [Example A191, N-(3-(7-(2,6-dioxo-piperidin-3-yl)-3-fluorobenzofuran-2-yl)prop-2-yn-1-yl)-5-(8-(7-isopropyl-1,3-dimethyl-2-oxo-2,3-dihydro-1H-benzo [d]imidazol-5-yl)isoquinolin-3-yl)picolinamide], in experiment [1], the Dmax was greater than 80% and the DC50 fell in the range of 10 to 99 nM. In experiment [2], this compound returned a DC50 greater than 1000 nM and a Dmax of less than 20%.
In experiment [1], `Cn1c(=O)n(C)c2c(N3CC4CCC(C3)O4)nc(-c3cccc4cc(-c5ccc(C(=O)NCC#Cc6ccc7occ(C89CC(C8)C(=O)NC9=O)c7c6)nc5)ncc34)cc21` [Example A194, 5-(8-(4-(8-oxa-3-azabicyclo[3.2.1]octan-3-yl)-1,3-dimethyl-2-oxo-2,3-dihydro-1H-imidazo[4,5-c]pyridin-6-yl)isoquinolin-3-yl)-N-(3-(3-(2,4-dioxo-3-azabicyclo[3.1.1]heptan-1-yl)benzofuran-5-yl)prop-2-yn-1-yl)picolinamide] showed a Dmax greater than 80% and a DC50 of 1 to 9.9 nM. Moreover, in experiment [2], the DC50 was greater than 1000 nM and the Dmax is less than 20%.
In experiment [1], `Cc1cc(-c2ncc3c(n2)OCCN3c2ccc3c(c2)n(C)c(=O)n3C)cnc1C(=O)NCC#Cc1cc2c(C3CCC(=O)NC3=O)nccc2o1` (stereo not shown) [Example A195, 5-(5-(1,3-dimethyl-2-oxo-2,3-dihydro-1H-benzo[d]imidazol-5-yl)-6,7-dihydro-5H-pyrimido[4,5-b][1,4]oxazin-2-yl)-N-(3-(4-(2,6-dioxopiperidin-3-yl)furo[3,2-c]pyridin-2-yl)prop-2-yn-1-yl)-3-methylpicolinamide] yielded a Dmax greater than 80% and a DC50 of 1 to 9.9 nM. Also, in experiment [2], the DC50 is greater than 1000 nM and the Dmax was less than 20%.
Regarding `CC(C)c1cc(-c2cccc3cc(-c4ccc(C(=O)NCC#Cc5cc6c(C7CCC(=O)NC7=O)cccc6o5)nc4)ncc23)cc2c1n(C)c(=O)n2C` (stereo not shown) [Example A197, N-(3-(4-(2,6-dioxo-piperidin-3-yl)benzofuran-2-yl)prop-2-yn-1-yl)-5-(8-(7-isopropyl-1,3-dimethyl-2-oxo-2,3-dihydro-1H-benzo [d]imidazol-5-yl)isoquinolin-3-yl)picolinamide], the figures for the Dmax in experiment [1] and in experiment [2] were greater than 80% and less than 20%, respectively. For the same compound, the DC50 is 1 to 9.9 nM in experiment [1] and greater than 1000 nM in experiment [2].
With `Cc1cc(N2CCOc3nc(-c4ccc(C(=O)NCC#Cc5cc6c(C7CCC(=O)NC7=O)cccc6o5)nc4)ncc32)cc2c1n(C)c(=O)n2C` (stereo not shown) [Example A199, N-(3-(4-(2,6-dioxo-piperidin-3-yl)benzofuran-2-yl)prop-2-yn-1-yl)-5-(5-(1,3,7-trimethyl-2-oxo-2,3-dihydro-1H-benzo[d]imidazol-5-yl)-6,7-dihydro-5H-pyrimido[4,5-b] [1,4]oxazin-2-yl)picolinamide], the values for the Dmax in experiment [1] and in experiment [2] were greater than 80% and less than 20%, respectively. For the same compound, the DC50 in experiment [1] was 1 to 9.9 nM; in experiment [2], 100 to 999 nM.
Consider `CC(C)c1cc(-c2cccc3cc(-c4ccc(C(=O)NCC#Cc5cnc6c(c5)c(C5CCC(=O)NC5=O)cn6C)nc4)ncc23)cc2c1n(C)c(=O)n2C` (stereo not shown) [Example A202, N-(3-(3-(2,6-dioxo-piperidin-3-yl)-1-methyl-1H-pyrrolo [2,3-b]pyridin-5-yl)prop-2-yn-1-yl)-5-(8-(7-isopropyl-1,3-dimethyl-2-oxo-2,3-dihydro-1H-benzo[d]imidazol-5-yl)isoquinolin-3-yl)picolinamide], for which, in experiment [1], the Dmax fell in the range of 60 to 79% and the DC50 fell in the range of 10 to 99 nM. In experiment [2], the DC50 is greater than 1000 nM and the Dmax is less than 20%.
As to `Cc1cc(-c2ncc3c(n2)OCCN3c2ccc3c(c2)n(C)c(=O)n3C)cnc1C(=O)NCC#Cc1cc2c(C3CCC(=O)NC3=O)ccc(F)c2o1` (stereo not shown) [Example A203, 5-(5-(1,3-dimethyl-2-oxo-2,3-dihydro-1H-benzo[d]imidazol-5-yl)-6,7-dihydro-5H-pyrimido[4,5-b][1,4]oxazin-2-yl)-N-(3-(4-(2,6-dioxopiperidin-3-yl)-7-fluoro-benzofuran-2-yl)prop-2-yn-1-yl)-3-methylpicolinamide], in experiment [1], the Dmax fell in the range of 60 to 79% and the DC50 lay in the range of 10 to 99 nM. In experiment [2], this compound registered a DC50 greater than 1000 nM and a Dmax of less than 20%.
In experiment [1], `CC(C)c1cc(-c2cccc3cc(-c4ccc(C(=O)NCC#Cc5ccc6[nH]nc(C7CCC(=O)NC7=O)c6c5)nc4)ncc23)cc2c1n(C)c(=O)n2C` (stereo not shown) [Example A204, N-(3-(3-(2,6-dioxo-piperidin-3-yl)-1H-indazol-5-yl)prop-2-yn-1-yl)-5-(8-(7-isopropyl-1,3-dimethyl-2-oxo-2,3-dihydro-1H-benzo [d]imidazol-5-yl)isoquinolin-3-yl)picolinamide] came in with a Dmax greater than 80% and a DC50 of 1 to 9.9 nM. In experiment [2], the DC50 lay in the range of 1 to 9.9 nM and the Dmax lay in the range of 60 to 79%.
For the compound `COc1nc(-c2cnc(C(=O)NCC#Cc3cc4c(C5CCC(=O)NC5=O)cccc4o3)c(C)c2)ncc1Nc1cc(C2CCOCC2)c2c(c1)n(C)c(=O)n2C` (stereo not shown) [Example A207, 5-(5-((1,3-dimethyl-2-oxo-7-(tetrahydro-2H-pyran-4-yl)-2,3-dihydro-1H-benzo[d]imidazol-5-yl)amino)-4-methoxypyrimidin-2-yl)-N-(3-(4-(2,6-dioxopiperidin-3-yl)benzofuran-2-yl)prop-2-yn-1-yl)-3-methylpicolinamide], in experiment [1], the Dmax was greater than 80% and the DC50 was less than 1 nM. Further, in experiment [2], the DC50 was 100 to 999 nM and the Dmax was less than 20%.
